According to ChEMBL document CHEMBL3988442, “University of Dundee, Small-Polar-MMV Screening Library” (2021):

Experiments:
[1] = In vitro enzyme assay to detect hydrolysis of chlorophenol red-beta-D-[…] directly proportional to the number of Toxoplasma stably expressing beta-galactosidase; format: functional, organism-based, Toxoplasma gondii; conditions: for IC50: Toxoplasma gondii
[2] = microbe, parasite or virus in culture; conditions: Mycobacterium tuberculosis, 72 h, read-out: pIC50 (converted)
[3] = microbe, parasite or virus in culture; conditions: Mycobacterium tuberculosis, 96 h, read-out: pIC50 (converted)

Row | SMILES | IC50 [1] [µM] | IC50 [2] [µM] | IC50 [3] [µM] | pIC50 [1]
1 | COCCNc1nnc(SCc2ccc(Br)cn2)s1 | > 50.1 | 276 | > 501 | 
2 | C1CCC(COCCc2noc(C3CNC3)n2)C1 | 19.5 | 96.5 | > 501 | 
3 | Fc1cccc(-c2cccc(N3CCC(NC4CCCOC4)CC3)c2)c1 (configuration not stated) | 26.2 | 27.4 | 30.8 | 
4 | NCCC(=O)N1CCCC(CCc2ccc(F)cc2)C1 (configuration not stated) | > 50.1 | 204 | 479 | 
5 | NCCC1CSc2ccccc2O1 (configuration not stated) | > 50.1 | 129 | 170 | 
6 | OCCNCCNCc1ccc(-c2cccc(Cl)c2)o1 | > 25.1 | 84.4 | 253 | 
7 | Cc1cccc(OCCc2noc(C3CNC3)n2)c1 | 8.49 | 89.2 | 163 | 
8 | Nc1nnc(SCc2ccc(Cl)s2)[nH]1 | > 50.1 | 307 | 313 | 
9 | Nc1n[nH]c(SCc2ccc3c(c2)OCCO3)n1 | > 50.1 | > 501 | > 501 | 
10 | CC(C)(N)CN1CCN(c2cccc(Cl)c2)CC1 | > 50.1 | 98.6 | 474 | 
11 | Brc1ccc(N2CCNCC2)nc1 | > 50.1 | 185 | > 501 | 
12 | COc1ccc(CCN)c(OC)c1 | > 50.1 | 46.8 | 91.2 | 
13 | C=C/C=c1\c(=C/C)oc2c(NCc3ccccc3)nc(CC)nc12 | 37.5 | 22 | 19.1 | 
14 | Brc1ccc(NCc2ccc(Cn3ccnc3)cc2)nc1 | 29.6 | 3.73 | 4.63 | 
15 | O=C(c1cc(C2CC2)n[nH]1)N1CCC2(CCCO2)CC1 | > 50.1 | > 501 | > 501 | 
16 | CCCc1nc(NCCc2ccccc2)c2c(n1)c(C)nn2CC | 9.84 | 48.8 | 38.5 | 4.958
17 | NC(=O)CCc1ccc(Cl)s1 | > 50.1 | > 501 | 160 | 

Row | SMILES | IC50 [1] [µM] | IC50 [2] [µM] | IC50 [3] [µM] | pIC50 [1]
18 | C=C/C=c1\c(=C/C)oc2c(NCc3ccccc3)nc(C)nc12 | 37.2 | 20.6 | 12.1 | 
19 | Cc1cc(C(=O)N2CCN(c3nc4c(C(C)C)cccc4s3)CC2)on1 | > 25.1 | 21.3 | 38.5 | 
20 | OCc1cc2ccccc2nc1N1CCSCC1 | > 50.1 | 238 | 282 | 
21 | NC(CC1CCCC1)c1ccc(Oc2ccccc2)cc1 (configuration not stated) | 5.29 | 27.4 | 24.2 | 
22 | NCc1cccc(-c2ccccn2)n1 | 12.4 | 109 | 97.6 | 
23 | Cc1cc(NC(=O)C(C)C)n(-c2nc(C)c(C)c(=O)[nH]2)n1 | 1.51 | 4.11 | 9.46 | 5.713
24 | CCn1cc(CN(C)S(=O)(=O)c2ccc(C(C)C)cc2)cn1 | > 50.1 | 46.8 | 48.5 | 
25 | CCOC(=O)C(O)c1cc(Br)c2c(c1)OCO2 (configuration not stated) | > 50.1 | 223 | > 501 | 
26 | CN(C)C(=O)Nc1cc(F)cc(F)c1 | 2.1 | 30.2 | 30.6 | 
27 | CCCS(=O)(=O)NCC(O)C1CCCC1 (configuration not stated) | > 50.1 | 294 | 268 | 
28 | Cc1cc(C)c(C#N)c(N2C[C@H](C3CC3)[C@@H](N)C2)n1 | > 50.1 | 247 | > 501 | 
29 | Cn1nc2n(c1=O)CCN(Cc1ccc(Br)s1)CC2 | > 50.1 | 139 | > 501 | 
30 | CC(C)c1ccc(C(CN)N2CCc3sccc3C2)cc1 (configuration not stated) | 13.4 | 20.4 | 24.8 | 5.076
31 | COc1cccc(N2CCNCC2C)c1 (configuration not stated) | > 50.1 | > 501 | > 501 | 
32 | NCCNC(=O)c1ccc(-c2ccc(Cl)cc2)s1 | > 25.1 | 67.3 | 103 | 
33 | COc1ccc(S(=O)(=O)N(C)C)cc1NCC1CC1 | > 50.1 | 299 | > 501 | 
